# Literature values as cited in patent publication US20040019096A1, “Novel formulations of carvedilol” (priority 2003, published 2004).
# Conditions: immediate release formulation
smiles,measurement,setting,value
COc1ccccc1OCCNCC(O)COc1cccc2[nH]c3ccccc3c12 (centres unmarked) [carvedilol],absorption following oral administration,,rapidly and extensively absorbed
same,terminal elimination half-life,oral administration,7 to 10 h
